Reference: patent US20260216108A1, “PHARMACEUTICAL COMPOSITION CONTAINING A MITOPHAGY INDUCER” (HANGZHOU PHECDAMED CO., LTD., priority 2023, published 2026)

Key:
Type in all cases: physicochemical
[1] = Compatibility test of API and auxiliary materials: content by HPLC; conditions: for Content: in % (unit assumed)
Protocol: (§1) 4. Using HPLC method to detect the content of the sample and relevant substances.
(§2) The parameters of the HPLC method for the detection of the content and relevant substances are detailed in Table 2 below.
(§3) Placing the samples under experimental conditions of high temperature (60° C.), high humidity (92.5% RH), acceleration (40° C./75% RH) and illumination (visible light 5500 Lux±500 Lux, near ultraviolet light 85 μw/cm2), […] Submitting the samples for relevant indicator testing (test items include appearance, hygroscopic weight gain, content and relevant substances), and comparing the test results with the control samples (raw material).

[2] = Compatibility test of API and auxiliary materials: hygroscopic weight gain; conditions: opened
Text: 3. Detecting the hygroscopic weight gain of the sample.
The commonly used auxiliary materials for oral solid preparations are selected to mix with TJ0113 raw material in different proportions, placed under different conditions, and taken out at different time points respectively to judge the compatibility of the raw and auxiliary materials by using appearance, hygroscopic weight gain, content and relevant substances as indicators. According to the auxiliary material manual, the auxiliary materials used are commonly used auxiliary materials for oral solid preparations, and have been included in the current edition of the Chinese Pharmacopoeia, each auxiliary material has a stable nature. In order to objectively evaluate the compatibility of raw material and auxiliary materials used, the compatibility test was conducted on the raw material and each auxiliary material.
The ratio of the raw and auxiliary materials is set according to the “Basic Technical Guidance Principles for Research on Chemical Drug Preparations” and the preparation specifications, the auxiliary materials with a larger amount (such as lactose, microcrystalline cellulose) are mixed according to the ratio of main drug:diluent=1:5; the auxiliary materials with a moderate amount (such as croscarmellose sodium) are mixed according to the ratio of main drug:disintegrant=1:1; the auxiliary materials with a smaller amount (such as magnesium stearate) are mixed according to the ratio of main drug:lubricant=10:1. The manufacturer information and the ratio of raw and auxiliary materials for the compatibility experiment are shown in Table 1 below:
as §3

[3] = Compatibility test of API and auxiliary materials: relevant substances (impurities) by HPLC; conditions: opened
Protocol: as §1, §2, §3

Content ([1]; 40° C./75% RH (opened), 10 d): 98.9
Content ([1]; 40° C./75% RH (opened), 30 d): 97.3
Content ([1]; 60° C. (opened), 10 d): 100.1
Content ([1]; 60° C. (opened), 30 d): 101.4
Change of content ([1]; 60° C., 92.5% RH, 40° C./75% RH opened, 10 days illumination): did not change significantly
Content ([1]; 92.5% RH (opened), 10 d): 97.8
Content ([1]; 92.5% RH (opened), 30 d): 99.9
Content ([1]; Illumination (opened), 10 d): 100.8
Content ([1]; Initial): 99.7
Hygroscopic weight gain ([2]; 40° C./75% RH, 10 d): −3.6
Hygroscopic weight gain ([2]; 40° C./75% RH, 30 d): −4.2
Hygroscopic weight gain ([2]; 92.5% RH, 10 d): 5.5
% Impurities RRT0.37 ([3]; 40° C./75% RH, 0 d): <0.05%
% Impurities RRT0.46 ([3]; 40° C./75% RH, 0 d): <0.05%
% Impurities RRT0.89 ([3]; 40° C./75% RH, 0 d): 0.08%
% Impurities RRT1.10 ([3]; 40° C./75% RH, 0 d): <0.05%
% Impurities RRT1.16 ([3]; 40° C./75% RH, 0 d): 0.88%
% Impurities RRT1.20 ([3]; 40° C./75% RH, 0 d): 0.09%
% Impurities RRT1.24 ([3]; 40° C./75% RH, 0 d): <0.05%
% Impurities RRT1.29 ([3]; 40° C./75% RH, 0 d): 0.14%
% Impurities RRT1.33 ([3]; 40° C./75% RH, 0 d): 0.10%
% Impurities RRT1.37 ([3]; 40° C./75% RH, 0 d): 0.07%
% Impurities RRT1.41 ([3]; 40° C./75% RH, 0 d): <0.05%
% Impurities RRT1.43 ([3]; 40° C./75% RH, 0 d): <0.05%
% Impurities RRT1.73 ([3]; 40° C./75% RH, 0 d): <0.05%
% Impurities RRT1.74 ([3]; 40° C./75% RH, 0 d): 0.05%
% Impurities Total ([3]; 40° C./75% RH, 0 d): 1.41%
% Impurities RRT0.37 ([3]; 40° C./75% RH, 10 d): <0.05%
% Impurities RRT0.46 ([3]; 40° C./75% RH, 10 d): 0.11%
% Impurities RRT0.89 ([3]; 40° C./75% RH, 10 d): 0.06%
% Impurities RRT1.10 ([3]; 40° C./75% RH, 10 d): <0.05%
% Impurities RRT1.16 ([3]; 40° C./75% RH, 10 d): 1.23%
% Impurities RRT1.20 ([3]; 40° C./75% RH, 10 d): 0.06%
% Impurities RRT1.24 ([3]; 40° C./75% RH, 10 d): <0.05%
% Impurities RRT1.29 ([3]; 40° C./75% RH, 10 d): 0.08%
% Impurities RRT1.33 ([3]; 40° C./75% RH, 10 d): 0.07%
% Impurities RRT1.37 ([3]; 40° C./75% RH, 10 d): 0.05%
% Impurities RRT1.41 ([3]; 40° C./75% RH, 10 d): 0.09%
% Impurities RRT1.43 ([3]; 40° C./75% RH, 10 d): 0.07%
% Impurities RRT1.54 ([3]; 40° C./75% RH, 10 d): 0.06%
% Impurities RRT1.63 ([3]; 40° C./75% RH, 10 d): 0.21%
% Impurities RRT1.65/1.70 ([3]; 40° C./75% RH, 10 d): <0.05%
% Impurities RRT1.73 ([3]; 40° C./75% RH, 10 d): 0.59%
% Impurities RRT1.74 ([3]; 40° C./75% RH, 10 d): 0.06%
% Impurities Total ([3]; 40° C./75% RH, 10 d): 2.74%
% Impurities RRT0.46 ([3]; 40° C./75% RH, 30 d): 0.20%
% Impurities RRT0.89 ([3]; 40° C./75% RH, 30 d): 0.08%
% Impurities RRT1.10 ([3]; 40° C./75% RH, 30 d): <0.05%
% Impurities RRT1.16 ([3]; 40° C./75% RH, 30 d): 1.18%
% Impurities RRT1.20 ([3]; 40° C./75% RH, 30 d): 0.05%
% Impurities RRT1.24 ([3]; 40° C./75% RH, 30 d): <0.05%
% Impurities RRT1.29 ([3]; 40° C./75% RH, 30 d): 0.14%
% Impurities RRT1.33 ([3]; 40° C./75% RH, 30 d): 0.07%
% Impurities RRT1.37 ([3]; 40° C./75% RH, 30 d): 0.08%
% Impurities RRT1.41 ([3]; 40° C./75% RH, 30 d): 0.08%
% Impurities RRT1.43 ([3]; 40° C./75% RH, 30 d): 0.07%
% Impurities RRT1.54 ([3]; 40° C./75% RH, 30 d): <0.05%
% Impurities RRT1.63 ([3]; 40° C./75% RH, 30 d): 0.24%
% Impurities RRT1.65/1.70 ([3]; 40° C./75% RH, 30 d): <0.05%
% Impurities RRT1.73 ([3]; 40° C./75% RH, 30 d): 0.74%
% Impurities RRT1.74 ([3]; 40° C./75% RH, 30 d): 0.08%
% Impurities Total ([3]; 40° C./75% RH, 30 d): 3.01%
% Impurities RRT0.46 ([3]; 60° C., 0 d): <0.05%
% Impurities RRT0.89 ([3]; 60° C., 0 d): 0.08%
% Impurities RRT1.16 ([3]; 60° C., 0 d): 0.88%
% Impurities RRT1.20 ([3]; 60° C., 0 d): 0.09%
% Impurities RRT1.29 ([3]; 60° C., 0 d): 0.14%
% Impurities RRT1.33 ([3]; 60° C., 0 d): 0.10%
% Impurities RRT1.37 ([3]; 60° C., 0 d): 0.07%
% Impurities RRT1.41 ([3]; 60° C., 0 d): <0.05%
% Impurities RRT1.73 ([3]; 60° C., 0 d): <0.05%
% Impurities RRT1.74 ([3]; 60° C., 0 d): 0.05%
% Impurities Total ([3]; 60° C., 0 d): 1.41%
% Impurities RRT0.46 ([3]; 60° C., 10 d): <0.05%
% Impurities RRT0.89 ([3]; 60° C., 10 d): 0.08%
% Impurities RRT1.16 ([3]; 60° C., 10 d): 0.87%
% Impurities RRT1.20 ([3]; 60° C., 10 d): 0.07%
% Impurities RRT1.29 ([3]; 60° C., 10 d): 0.17%
% Impurities RRT1.33 ([3]; 60° C., 10 d): 0.08%
% Impurities RRT1.37 ([3]; 60° C., 10 d): 0.06%
% Impurities RRT1.41 ([3]; 60° C., 10 d): <0.05%
% Impurities RRT1.73 ([3]; 60° C., 10 d): <0.05%
% Impurities RRT1.74 ([3]; 60° C., 10 d): 0.07%
% Impurities Total ([3]; 60° C., 10 d): 1.40%
% Impurities RRT0.46 ([3]; 60° C., 30 d): <0.05%
% Impurities RRT0.89 ([3]; 60° C., 30 d): 0.07%
% Impurities RRT1.16 ([3]; 60° C., 30 d): 0.87%
SMILES: O=C(O)C[S+]([O-])c1cc(NS(=O)(=O)c2ccc(Br)cc2)c2ccccc2c1O (stereo not drawn) [API]
